Assay results reported in BindingDB's records for doi:10.1016/s0026-0495(96)90072-4 (Sandoz Pharma, 1996).
Positions of bridges follow the written chain, without caps; N, C: chain ends. Non-standard residues stand in square brackets, D forms with d. Residues, ends and D or L forms follow the SMILES beside them. *: point of attachment. d1Nal = N[C@H](Cc1cccc2ccccc12)C(=O)O; Asu = N[C@@H](CCCCCC(=O)O)C(=O)O; Nphe = O=C(O)CNCc1ccccc1; Ahp = NCCCCCCC(=O)O; Bn = c1ccc(C*)cc1

Columns and labels:
[1] = biological target: Somatostatin receptor type 5 (Homo sapiens, UniProt P35346)
Sequence of Somatostatin receptor type 5 (P35346 whole entry): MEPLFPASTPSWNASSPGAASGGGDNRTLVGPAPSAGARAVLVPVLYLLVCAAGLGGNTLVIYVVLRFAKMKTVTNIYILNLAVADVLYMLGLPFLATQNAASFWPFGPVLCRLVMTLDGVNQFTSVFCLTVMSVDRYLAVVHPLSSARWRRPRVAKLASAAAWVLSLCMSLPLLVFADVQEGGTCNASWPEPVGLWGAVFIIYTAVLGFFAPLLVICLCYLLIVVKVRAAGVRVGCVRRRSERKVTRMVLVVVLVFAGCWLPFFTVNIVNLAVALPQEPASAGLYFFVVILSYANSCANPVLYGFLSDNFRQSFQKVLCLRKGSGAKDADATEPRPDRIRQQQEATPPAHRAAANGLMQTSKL

[2] = biological target: Somatostatin receptor type 3 (Homo sapiens, UniProt P32745)
Sequence of Somatostatin receptor type 3 (P32745 whole entry): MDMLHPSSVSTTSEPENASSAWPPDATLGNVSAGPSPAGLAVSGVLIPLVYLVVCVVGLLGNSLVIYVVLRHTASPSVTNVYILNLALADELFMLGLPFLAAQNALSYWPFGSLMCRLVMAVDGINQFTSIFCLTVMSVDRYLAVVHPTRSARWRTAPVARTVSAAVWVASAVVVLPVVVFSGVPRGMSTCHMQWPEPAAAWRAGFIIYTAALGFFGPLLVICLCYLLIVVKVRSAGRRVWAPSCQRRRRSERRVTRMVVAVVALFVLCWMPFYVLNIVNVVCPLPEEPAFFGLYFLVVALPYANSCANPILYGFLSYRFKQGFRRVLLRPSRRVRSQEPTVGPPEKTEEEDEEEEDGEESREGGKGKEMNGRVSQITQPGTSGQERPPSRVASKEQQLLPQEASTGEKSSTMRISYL

[3] = biological target: Somatostatin receptor type 1 (Homo sapiens, UniProt P30872)
Sequence of Somatostatin receptor type 1 (P30872 whole entry): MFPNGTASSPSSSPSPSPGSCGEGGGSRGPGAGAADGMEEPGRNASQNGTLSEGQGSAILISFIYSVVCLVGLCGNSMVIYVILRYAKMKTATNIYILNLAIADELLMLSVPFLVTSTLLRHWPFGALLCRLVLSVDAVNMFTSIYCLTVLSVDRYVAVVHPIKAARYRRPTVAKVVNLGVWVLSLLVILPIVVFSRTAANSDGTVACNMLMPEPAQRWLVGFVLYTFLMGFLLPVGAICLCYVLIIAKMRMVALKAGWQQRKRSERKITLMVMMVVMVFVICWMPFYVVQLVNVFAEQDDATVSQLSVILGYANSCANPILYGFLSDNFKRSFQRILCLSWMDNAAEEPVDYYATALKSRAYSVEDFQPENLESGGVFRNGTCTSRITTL

[4] = biological target: Somatostatin receptor type 2 (Homo sapiens, UniProt P30874)
Sequence of Somatostatin receptor type 2 (P30874 whole entry): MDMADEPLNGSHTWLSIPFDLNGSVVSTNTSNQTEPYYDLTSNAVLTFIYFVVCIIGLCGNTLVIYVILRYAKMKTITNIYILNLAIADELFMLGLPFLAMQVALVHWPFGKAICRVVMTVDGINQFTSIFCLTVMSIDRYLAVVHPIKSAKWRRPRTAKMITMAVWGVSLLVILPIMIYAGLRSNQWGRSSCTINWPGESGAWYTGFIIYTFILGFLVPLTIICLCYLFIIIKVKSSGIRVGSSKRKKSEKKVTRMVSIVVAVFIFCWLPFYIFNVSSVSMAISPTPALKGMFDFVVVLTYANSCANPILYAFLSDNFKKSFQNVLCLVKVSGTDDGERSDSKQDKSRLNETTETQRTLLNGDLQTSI

[5] = biological target: Somatostatin receptor type 4 (Homo sapiens, UniProt P31391)
Sequence of Somatostatin receptor type 4 (P31391 whole entry): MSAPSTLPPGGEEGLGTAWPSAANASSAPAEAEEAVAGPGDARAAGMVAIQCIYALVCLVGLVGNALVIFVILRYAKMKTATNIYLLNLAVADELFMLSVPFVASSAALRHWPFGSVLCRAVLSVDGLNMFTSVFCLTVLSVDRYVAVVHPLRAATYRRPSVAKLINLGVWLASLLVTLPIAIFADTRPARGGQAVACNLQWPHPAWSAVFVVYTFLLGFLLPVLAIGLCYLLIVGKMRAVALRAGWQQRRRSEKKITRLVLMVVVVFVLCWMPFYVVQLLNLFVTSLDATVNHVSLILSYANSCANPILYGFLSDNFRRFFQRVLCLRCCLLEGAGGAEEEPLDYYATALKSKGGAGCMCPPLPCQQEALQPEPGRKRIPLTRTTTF

Structure (SMILES) | Ki [1] | Ki [2] | Ki [3] | Ki [4] | Ki [5]
C[C@@H](O)[C@@H]1NC(=O)[C@H](CCCCN)NC(=O)[C@@H](Cc2c[nH]c3ccccc23)NC(=O)[C@H](Cc2ccccc2)NC(=O)[C@@H]2CCCN2C(=O)[C@H](Cc2ccccc2)NC1=O (cyclo(PF[dW]KTF)) | 39.8 nM | 126 nM | 631 nM | 0.63 nM | 100 nM
CC(C)[C@@H]1NC(=O)[C@H](CCCCN)NC(=O)[C@@H](Cc2c[nH]c3ccccc23)NC(=O)[C@H](Cc2ccc(O)cc2)NC(=O)[C@@H](NC(=O)[C@H](N)Cc2ccc3ccccc3c2)CSSC[C@@H](C(=O)N[C@H](C(N)=O)[C@@H](C)O)NC1=O [3-(2-Naphtyl)-D-Ala-L-Cys(1)-L-Tyr-D-Trp-L-Lys-L-Val-L-Cys(1)-L-Thr-NH2] |  | 63.1 nM |  | 0.5 nM | 
CC(C)[C@H](NC(=O)[C@H](CCCCN)NC(=O)[C@@H](Cc1c[nH]c2ccccc12)NC(=O)[C@H](Cc1ccc(O)cc1)NC(=O)[C@H](Cc1ccccc1)NC(=O)[C@H](N)Cc1ccccc1)C(=O)N[C@@H](Cc1ccccc1)C(=O)N[C@H](Cc1cccc2ccccc12)C(N)=O [BIM 23056] (H-[dF]FY[dW]KVF[d1Nal]-NH2) | 12.6 nM | 100 nM | 100 nM | 200 nM | 100 nM
CC(C)[C@@H]1NC(=O)[C@H](CCCCN)NC(=O)[C@@H](Cc2c[nH]c3ccccc23)NC(=O)[C@H](Cc2ccc(O)cc2)NC(=O)[C@@H](NC(=O)[C@H](N)Cc2ccccc2)CSSC[C@@H](C(=O)N[C@@H](Cc2c[nH]c3ccccc23)C(N)=O)NC1=O [CAS_71306] (H-[dF]CY[dW]KVCW-NH2; disulfide 2-7) |  |  |  | 0.07 nM | 
C[C@@H](O)[C@H](NC(=O)[C@H](Cc1ccccc1)NC(=O)[C@@H](NC(=O)[C@H](CCCCN)NC(=O)[C@@H](Cc1c[nH]c2ccccc12)NC(=O)[C@H](Cc1ccccc1)NC(=O)[C@H](Cc1ccccc1)NC(=O)[C@H](N)Cc1ccccc1)[C@@H](C)O)C(N)=O [CAS_133073-82-2] (H-[dF]FF[dW]KTFT-NH2) | 1.58 nM | 1.99 nM | 6.3 nM | 7.94 nM | 15.8 nM
C[C@@H](OCc1ccccc1)[C@@H]1NC(=O)[C@H](CCCCN)NC(=O)[C@@H](Cc2c[nH]c3ccccc23)NC(=O)[C@H](Cc2ccccc2)NC(=O)CCCCCCNC1=O [c[Aha-Phe-D-Trp-Lys-Thr(Bzl)]] (cyclo([Ahp]F[dW]KT(Bn))) | 316 nM | 398 nM | 398 nM | 2510 nM | 3160 nM

The next lines start with the values.

Ki [1] | Ki [2] | Ki [3] | Ki [4] | Ki [5] | Structure (SMILES)
2.51 nM | 0.39 nM | 3.98 nM | 0.79 nM | 1.99 nM | C[C@@H](O)[C@@H]1NC(=O)[C@H](Cc2ccc(O)cc2)NC(=O)[C@H]([C@@H](C)O)NC(=O)[C@H](CCCCN)NC(=O)[C@H](Cc2c[nH]c3ccccc23)NC(=O)[C@H](Cc2ccccc2)NC(=O)[C@H](Cc2ccccc2)NC(=O)[C@H](CC(N)=O)NC(=O)[C@H](CCCCN)NC(=O)CCCCC[C@@H](C(=O)O)NC(=O)[C@H](CO)NC1=O [CGP-23996] (KNFFWKTYTS[Asu]-OH; lactam N-11)
0.1 nM | 6.3 nM | 100 nM | 0.79 nM | 100 nM | C[C@@H](O)[C@@H]1NC(=O)[C@H](CCCCN)NC(=O)[C@@H](Cc2c[nH]c3ccccc23)NC(=O)[C@H](Cc2c[nH]c3ccccc23)NC(=O)[C@H](Cc2ccccc2)NC(=O)CCCCCCNC(=O)[C@H](Cc2ccccc2)NC1=O [L-362855] (cyclo([Ahp]FW[dW]KTF))
5.01 nM | 100 nM | 100 nM | 1.58 nM | 100 nM | CC(=O)N(CC(=O)NC1CSSCC(C(=O)NC(Cc2c[nH]c3ccccc23)C(N)=O)NC(=O)C(C(C)C)NC(=O)C(CCCCN)NC(=O)C(Cc2c[nH]c3ccccc23)NC(=O)C(Cc2ccc(O)cc2)NC1=O)Cc1ccccc1 (stereo not drawn) [RC 160II] (Ac-[Nphe]CYWKVCW-NH2; disulfide 2-7; configuration not given here)
12.6 nM | 100 nM | 794 nM | 126 nM | 100 nM | CSCC[C@@H]1NC(=O)[C@@H](NC(=O)[C@H](CC(N)=O)NC(=O)[C@H](CC(C)C)NC(=O)[C@@H]2CCCN2C(=O)[C@H](CCCCN)NC(=O)[C@H](CO)NC(=O)[C@@H](NC(=O)[C@@H](NC(=O)[C@@H](NC(=O)[C@H](CC(N)=O)NC(=O)[C@@H](N)CC(=O)O)[C@@H](C)O)C(C)C)[C@@H](C)O)CSSC[C@@H](C(=O)O)NC(=O)[C@H](C)NC(=O)[C@H]([C@@H](C)O)NC(=O)[C@H](CCCN=C(N)N)NC(=O)[C@H](CO)NC(=O)[C@H](CCCCN)NC(=O)[C@H](Cc2c[nH]c3ccccc23)NC(=O)[C@H](Cc2ccccc2)NC(=O)[C@H](Cc2ccc(O)cc2)NC(=O)[C@H](CC(N)=O)NC1=O [SS-22] (H-DNTVTSKPLNCMNYFWKSRTAC-OH; disulfide 11-22)
0.19 nM | 0.5 nM | 0.79 nM | 0.31 nM | 1 nM | CSCC[C@H](NC(=O)[C@H](C)NC(=O)[C@@H]1CCCN1C(=O)[C@H](CC(N)=O)NC(=O)[C@@H](N)CO)C(=O)N[C@@H](C)C(=O)N1CCC[C@H]1C(=O)N[C@@H](CCCN=C(N)N)C(=O)N[C@@H](CCC(=O)O)C(=O)N[C@@H](CCCN=C(N)N)C(=O)N[C@@H](CCCCN)C(=O)N[C@@H](C)C(=O)NCC(=O)N[C@H]1CSSC[C@@H](C(=O)O)NC(=O)[C@H](CO)NC(=O)[C@H]([C@@H](C)O)NC(=O)[C@H](Cc2ccccc2)NC(=O)[C@H]([C@@H](C)O)NC(=O)[C@H](CCCCN)NC(=O)[C@H](Cc2c[nH]c3ccccc23)NC(=O)[C@H](Cc2ccccc2)NC(=O)[C@H](Cc2ccccc2)NC(=O)[C@H](CC(N)=O)NC(=O)[C@H](CCCCN)NC1=O [SS-25] (H-SNPAMAPRERKAGCKNFFWKTFTSC-OH; disulfide 14-25)
